Source: publication PMC5149017, “Synthesis and Acetylcholinesterase Inhibitory Evaluation of 4-(1,3-Dioxoisoindolin-2-yl)-N-Phenyl Benzamide Derivatives as Potential Anti-Alzheimer Agents” (Iranian Journal of Pharmaceutical Research : IJPR, 2016)

Target: T1, acetylcholinesterase from electric eel source (AChE, E.C. 3.1.1.7, Type V-S) (Electrophorus electricus, UniProt O42275)
T1 construct: Acetylcholinesterase enzyme extracted from electric eel was utilized; purchased Sigma-Aldrich (Steinheim, Germany) Type V-S; host or cells: electric eel tissue (extracted)
T1 sequence (O42275 24-633): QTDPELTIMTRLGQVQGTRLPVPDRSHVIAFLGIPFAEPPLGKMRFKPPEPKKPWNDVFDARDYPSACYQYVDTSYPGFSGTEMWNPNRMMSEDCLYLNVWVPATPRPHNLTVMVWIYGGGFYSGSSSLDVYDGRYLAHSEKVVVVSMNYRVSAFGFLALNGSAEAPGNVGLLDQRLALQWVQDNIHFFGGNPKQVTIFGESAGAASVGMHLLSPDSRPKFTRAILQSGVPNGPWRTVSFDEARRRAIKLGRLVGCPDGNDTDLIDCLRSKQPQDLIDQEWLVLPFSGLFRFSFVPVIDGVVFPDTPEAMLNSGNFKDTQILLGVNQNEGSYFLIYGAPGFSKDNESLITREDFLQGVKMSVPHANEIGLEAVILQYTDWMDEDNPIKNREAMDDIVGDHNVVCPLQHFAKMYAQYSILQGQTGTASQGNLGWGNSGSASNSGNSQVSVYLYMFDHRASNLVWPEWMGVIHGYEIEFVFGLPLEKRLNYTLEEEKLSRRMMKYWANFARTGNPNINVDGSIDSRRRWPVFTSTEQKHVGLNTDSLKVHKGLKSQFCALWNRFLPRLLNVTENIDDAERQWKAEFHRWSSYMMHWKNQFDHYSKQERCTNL
Assay: biochemical
Conditions: Ellman test, preincubation 15 min at 25 °C, pH 8.0, triplicate, IC50 ± SD, read-out: IC50 (enzymatic assay, acetylcholinesterase inhibition)
Experimental: Lyophilized powder of acetylcholinesterase from electric eel source (AChE, E.C. 3.1.1.7, Type V-S, 1000 unit) was purchased from Sigma-Aldrich (Steinheim, Germany). 5,5′-Dithiobis-(2-nitrobenzoic acid, DTNB), potassium dihydrogen phosphate (KH2PO4), dipotassium hydrogen phosphate (K2HPO4), potassium hydroxide (KOH), sodium hydrogen carbonate (NaHCO3), and acetylthiocholine iodide were purchased from Fluka (Buchs, Switzerland).
According to the literature, the Ellman test was performed for assessment of the anticholinesterase activity of intended compounds in-vitro. […] After rapid and immediate mixing the change of absorption was measured at 412 nm.
The blank reading contained 3 mL buffer, 200 µL water, 100 µL DTNB and 20 µL substrate. The reaction rates were calculated, and the percent inhibition of test compounds was determined. Each concentration was analyzed in triplicate, and IC50 ± SD values were determined graphically from inhibition curves (log inhibitor concentration vs. percent of inhibition) ([22], [23]).
Acetylcholinesterase enzyme extracted from electric eel was utilized for assessment of the potency of intended compounds.

| Structure (SMILES) | IC50 [µM] |
| --- | --- |
| O=C(Nc1cccc(Cl)c1)c1ccc(N2C(=O)c3ccccc3C2=O)cc1 [Compound 4a, N-(3-Chlorophenyl)-4-(1,3-dioxoisoindolin-2-yl)benzamide] | > 250 |
| O=C(Nc1ccc(Cl)cc1)c1ccc(N2C(=O)c3ccccc3C2=O)cc1 [Compound 4b, N-(4-Chlorophenyl)-4-(1,3-dioxoisoindolin-2-yl)benzamide] | > 250 |
| O=C(Nc1ccccc1F)c1ccc(N2C(=O)c3ccccc3C2=O)cc1 [Compound 4c, 4-(1,3-Dioxoisoindolin-2-yl)-N-(2-fluorophenyl)benzamide] | > 250 |
| O=C(Nc1cccc(F)c1)c1ccc(N2C(=O)c3ccccc3C2=O)cc1 [Compound 4d, 4-(1,3-Dioxoisoindolin-2-yl)-N-(3-fluorophenyl)benzamide] | > 250 |
| COc1cccc(NC(=O)c2ccc(N3C(=O)c4ccccc4C3=O)cc2)c1 [Compound 4e, 4-(1,3-Dioxoisoindolin-2-yl)-N-(3-methoxyphenyl)benzamide] | > 250 |
| COc1ccc(NC(=O)c2ccc(N3C(=O)c4ccccc4C3=O)cc2)cc1 [Compound 4f, 4-(1,3-Dioxoisoindolin-2-yl)-N-(4-methoxyphenyl)benzamide] | > 250 |
| O=C(Nc1ccccc1[N+](=O)[O-])c1ccc(N2C(=O)c3ccccc3C2=O)cc1 [Compound 4g, 4-(1,3-Dioxoisoindolin-2-yl)-N-(2-nitrophenyl)benzamide] | 1.1 ± 0.25 |
| O=C(Nc1ccc([N+](=O)[O-])cc1)c1ccc(N2C(=O)c3ccccc3C2=O)cc1 [Compound 4h, 4-(1,3-Dioxoisoindolin-2-yl)-N-(4-nitrophenyl)benzamide] | > 250 |
